Test results from US20240125767A1, “METHOD FOR EVALUATING DRUG TOXICITY” (Public University Corporation Yokohama City University, priority 2019, published 2024).

Tested on: DILI patient-derived organoid (liver organoid from iPS cells 16-24)
Method: (§1) Each of iPS cells derived from human healthy person (1383D2; Kyoto University iPS Research Institute) and iPS cells derived from patients with drug-induced liver injury (16-24; Yokohama City University) were cultured at 5% CO2 and 37° C. for 3 days in a medium obtained by adding 1% B-27 Supplements (GIBCO), BMP4 (25 ng/ml) and CHIR99021 (8 μM) to DMEM/F-12 (Gibco) (10 ml), to induce mesodermal cells.
Each of iPS cells derived from human healthy person (1383D2; Kyoto University iPS Research Institute) and iPS cells derived from patients with drug-induced liver injury (16-24; Yokohama City University) were cultured at 5% CO2 and 37° C. for 5 days in a medium obtained by adding Wnt3a (50 ng/mL) and activin A (100 ng/ml) to a basal medium RPMI (FUJIFILM Corporation) (2 ml), to induce endodermal progenitor cells.
as §1, with “μM) to a basal mixed medium DMEM/F-12 (Gibco)” for “μM) to DMEM/F-12 (Gibco)”, “induce mesodermal progenitor cells. […]” for “induce mesodermal cells.”, “progenitor cells. […]” for “mesodermal cells.”

In the case of CC1(C)S[C@@H]2[C@H](NC(=O)[C@H](N)c3ccc(O)cc3)C(=O)N2[C@H]1C(=O)O [Amoxicillin trihydrate, amoxicillin trihydrate], the “Toxicity to liver organoid produced using cells derived from a DILI patient, co-cultured with blood cells (result in words)” value is reported as “DILI was not observed”.
